PubChem BioAssay AID328 (DTP/NCI, 2004)
Where “and” joins values, the source holds several entries; their conditions need not be identical. Equal values may be shown once. Toxic doses and inconclusive results are not listed.

Test system: BDF1 mice, P388 leukemia ip, median survival T/C
Assay: NCI In Vivo Anticancer Drug Screen. Data for tumor model P388 Leukemia (intraperitoneal) in B6D2F1 (BDF1) mice
Details: endpoint: median survival time, higher = longer survival
Outline: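 Vehicle-dosed animals serve as the reference; survival of compound-dosed, tumour-implanted mice is divided by it.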

[1] = dose: 100.0 mg/kg/injection, schedule: Q04DX002 (ip), vehicle: saline with Tween-80
[2] = dose: 200.0 mg/kg/injection, schedule: Q04DX002 (ip), vehicle: saline with Tween-80
[3] = dose: 400.0 mg/kg/injection, schedule: Q04DX002 (ip), vehicle: saline with Tween-80
[4] = dose: 25.0 mg/kg/injection, schedule: Q01DX009 (ip), vehicle: Klucel (hydroxypropylcellulose) (HPC)
[5] = dose: 100.0 mg/kg/injection, schedule: Q01DX009 (ip), vehicle: Klucel (hydroxypropylcellulose) (HPC)
[6] = dose: 6.25 mg/kg/injection, schedule: Q01DX009 (ip), vehicle: saline
[7] = dose: 12.5 mg/kg/injection, schedule: Q04DX003 (ip), vehicle: saline
[8] = dose: 25.0 mg/kg/injection, schedule: Q04DX003 (ip), vehicle: saline
[9] = dose: 50.0 mg/kg/injection, schedule: Q04DX003 (ip), vehicle: saline
[10] = dose: 100.0 mg/kg/injection, schedule: Q04DX003 (ip), vehicle: saline
[11] = dose: 6.25 mg/kg/injection, schedule: Q01DX009 (ip), vehicle: Klucel (hydroxypropylcellulose) (HPC)
[12] = dose: 1.56 mg/kg/injection, schedule: Q01DX009 (ip), vehicle: saline
[13] = dose: 25.0 mg/kg/injection, schedule: Q01DX009 (ip), vehicle: saline
[14] = dose: 50.0 mg/kg/injection, schedule: Q01DX009 (ip), vehicle: saline
[15] = dose: 100.0 mg/kg/injection, schedule: Q01DX009 (ip), vehicle: saline with Tween-80
[16] = dose: 100.0 mg/kg/injection, schedule: Q04DX003 (ip), vehicle: saline with Tween-80
[17] = dose: 200.0 mg/kg/injection, schedule: Q01DX009 (ip), vehicle: saline with Tween-80
[18] = dose: 200.0 mg/kg/injection, schedule: Q04DX003 (ip), vehicle: saline with Tween-80
[19] = dose: 400.0 mg/kg/injection, schedule: Q01DX009 (ip), vehicle: saline with Tween-80
[20] = dose: 400.0 mg/kg/injection, schedule: Q04DX003 (ip), vehicle: saline with Tween-80
[21] = dose: 100.0 mg/kg/injection, schedule: Q01DX009 (ip), vehicle: saline
[22] = dose: 200.0 mg/kg/injection, schedule: Q01DX009 (ip), vehicle: saline
[23] = dose: 50.0 mg/kg/injection, schedule: Q01DX009 (ip), vehicle: saline with Tween-80
[24] = dose: 25.0 mg/kg/injection, schedule: Q04DX003 (ip), vehicle: saline with Tween-80

For CC(C)(C)OC(=O)c1cccc(C(=O)OC(C)(C)C)c1, the T/C [1] was 103 % of control, the T/C [2] was 95 % of control and the T/C [3] was 94 % of control.

CN(C)c1ccc(C(=O)c2ccccc2)cc1 was tested, and the T/C [4] was 104 % of control, the T/C (dose: 50.0 mg/kg/injection, schedule: Q01DX009 (ip), vehicle: Klucel (hydroxypropylcellulose) (HPC)) was 90 % of control and the T/C [5] was 95 % of control.

In the case of CCCCCCCOc1ccc(OCCCC[N+]2(CC)CCCCC2)cc1, the T/C [6] is reported as 100 % of control.

For Cc1ccc(S(=O)(=O)N(C)CCC#N)cc1, the T/C [5] was 90 % of control, the T/C (dose: 100.0 mg/kg/injection, schedule: Q04DX003 (ip), vehicle: Klucel (hydroxypropylcellulose) (HPC)) was 90 % of control and the T/C (dose: 200.0 mg/kg/injection, schedule: Q01DX009 (ip), vehicle: Klucel (hydroxypropylcellulose) (HPC)) was 100 % of control. The T/C (dose: 200.0 mg/kg/injection, schedule: Q04DX003 (ip), vehicle: Klucel (hydroxypropylcellulose) (HPC)) was 100 % of control, the T/C (dose: 400.0 mg/kg/injection, schedule: Q01DX009 (ip), vehicle: Klucel (hydroxypropylcellulose) (HPC)) was 110 % of control and the T/C (dose: 400.0 mg/kg/injection, schedule: Q04DX003 (ip), vehicle: Klucel (hydroxypropylcellulose) (HPC)) was 109 % of control.

In the case of OCC(O)C(O)C(O)c1cnn(-c2ccccc2)n1 (configuration not stated), the T/C (dose: 75.0 mg/kg/injection, schedule: Q01DX009 (ip), vehicle: saline with Tween-80) is reported as 96 % of control, the T/C (dose: 150.0 mg/kg/injection, schedule: Q01DX009 (ip), vehicle: saline with Tween-80) is reported as 89 % of control and the T/C (dose: 300.0 mg/kg/injection, schedule: Q01DX009 (ip), vehicle: saline with Tween-80) is reported as 96 % of control.

COc1cc2c3c(c1)-c1c(ccc(OC)c1Oc1nnnn1-c1ccccc1)CC3N(C)CC2 (configuration not stated) was tested, and the T/C [7] was 108 % of control, the T/C [8] was 115 % of control and the T/C [9] was 115 % of control. The T/C [10] was 108 % of control and the T/C (dose: 200.0 mg/kg/injection, schedule: Q04DX003 (ip), vehicle: saline) was 115 % of control.

CSc1nnc([N+](=O)[O-])s1 was tested, and the T/C (dose: 1.56 mg/kg/injection, schedule: Q01DX009 (ip), vehicle: Klucel (hydroxypropylcellulose) (HPC)) was 110 % of control, the T/C (dose: 3.12 mg/kg/injection, schedule: Q01DX009 (ip), vehicle: Klucel (hydroxypropylcellulose) (HPC)) was 100 % of control and the T/C [11] was 110 % of control.

For COc1cc(N2CCOCC2)ccc1N, the T/C [12] was 154 % of control, the T/C [6] was 122 % of control and the T/C [8] was 118 % of control. The T/C (dose: 44.0 mg/kg/injection, schedule: Q04DX003 (ip), vehicle: saline) was 108 % of control and the T/C (dose: 66.0 mg/kg/injection, schedule: Q04DX003 (ip), vehicle: saline) was 116 % of control.

In the case of CCN(CC)CCOC(=O)c1ccccc1Nc1cccc(C)c1, the T/C [13] is reported as 104 % of control, the T/C [8] is reported as 109 % of control and the T/C [14] is reported as 108 % of control. For the same compound, the T/C [9] was 100 % of control, the T/C (dose: 87.0 mg/kg/injection, schedule: Q04DX003 (ip), vehicle: saline) was 119 % of control and the T/C [10] was 109 % of control. The T/C (dose: 175.0 mg/kg/injection, schedule: Q04DX003 (ip), vehicle: saline) was 107 % of control.

CCCCOC1CC2c3ccccc3C1c1cccc[n+]12 (configuration not stated) was tested, and the T/C [6] was 95 % of control, the T/C (dose: 12.5 mg/kg/injection, schedule: Q01DX009 (ip), vehicle: saline) was 109 % of control and the T/C (dose: 18.75 mg/kg/injection, schedule: Q04DX003 (ip), vehicle: saline) was 100 % of control. The T/C [13] was 122 % of control and the T/C (dose: 37.5 mg/kg/injection, schedule: Q04DX003 (ip), vehicle: saline) was 95 % of control.

In the case of O=C1CSCC(=O)C1, the T/C [1] is reported as 94 % of control, the T/C [2] is reported as 96 % of control and the T/C [3] is reported as 96 % of control.

For CC[C@@]1(O)C[C@H](OC2CC(N(C)C)C(O)C(C)O2)c2c(O)c3c(c(O)c2[C@H]1OC1CC(N(C)C)C(O)C(C)O1)C(=O)c1cccc(O)c1C3=O (some centres not stated), the T/C (dose: 0.25 mg/kg/injection, schedule: Q01DX010 (ip), vehicle: saline) was 100 % of control.

For CCCCC(=O)N/N=C(\C)[C@]1(O)Cc2c(O)c3c(c(O)c2[C@@H](OC2CC(N)C(O)C(C)O2)C1)C(=O)c1c(OC)cccc1C3=O (some centres not stated), the T/C (dose: 0.78 mg/kg/injection, schedule: Q01DX009 (ip), vehicle: saline) was 109 % of control, the T/C [12] was 109 % of control and the T/C (dose: 1.56 mg/kg/injection, schedule: Q01DX009 (ip), vehicle: water) was 157 % of control. For the same compound, the T/C (dose: 3.12 mg/kg/injection, schedule: Q01DX009 (ip), vehicle: saline) was 122 % of control, the T/C (dose: 3.12 mg/kg/injection, schedule: Q01DX009 (ip), vehicle: water) was 172 % of control and the T/C [6] was 178 % of control.

With CCCCCCC(CCCCCC)(CCCCCC)B1OCCO1 the T/C [15] was 100 % of control, the T/C [16] was 100 % of control and the T/C [17] was 104 % of control. For the same compound, the T/C [18] was 109 % of control, the T/C [19] was 123 % of control and the T/C [20] was 104 % of control.

COc1ccc(OC)c(Br)c1 was tested, and the T/C [15] was 110 % of control, the T/C [16] was 100 % of control and the T/C (dose: 178.0 mg/kg/injection, schedule: Q01DX009 (ip), vehicle: saline with Tween-80) was 118 % of control. The T/C [17] was 120 % of control, the T/C [18] was 100 % of control and the T/C (dose: 266.0 mg/kg/injection, schedule: Q01DX009 (ip), vehicle: saline with Tween-80) was 118 % of control. The T/C [19] was 109 % of control and the T/C [20] was 113 % of control.

With O=C(O)/C=C\C(=O)Nc1ccccc1NC(=O)/C=C/C(=O)O the T/C [21] was 104 % of control, the T/C [22] was 113 % of control and the T/C (dose: 400.0 mg/kg/injection, schedule: Q01DX009 (ip), vehicle: saline) was 109 % of control.

In the case of NCCNCc1c[nH]c(=O)[nH]c1=O, the T/C [23] is reported as 113 % of control, the T/C [15] is reported as 111 % of control and the T/C [17] is reported as 101 % of control.

In the case of COc1ccccc1C(=O)NN, the T/C (dose: 6.25 mg/kg/injection, schedule: Q04DX003 (ip), vehicle: saline) is reported as 100 % of control, the T/C [7] is reported as 110 % of control and the T/C [8] is reported as 105 % of control.

In the case of O=C(c1ccccc1)C1(Br)CCC1, the T/C (dose: 100.0 mg/kg/injection, schedule: Q01DX009 (ip), vehicle: saline sonified) is reported as 91 % of control, the T/C (dose: 200.0 mg/kg/injection, schedule: Q01DX009 (ip), vehicle: saline sonified) is reported as 100 % of control and the T/C (dose: 400.0 mg/kg/injection, schedule: Q01DX009 (ip), vehicle: saline sonified) is reported as 95 % of control.

With CCCCOC1OCN(CCOC)CC1(C)C (configuration not stated) the T/C [23] was 109 % of control, the T/C [14] was 116 % of control and the T/C [21] was 109 % of control. The T/C [17] was 153 % of control and the T/C [22] was 118 % of control.

For O=[N+]([O-])c1ccc(N(CCO)CCO)c2nonc12, the T/C (dose: 15.0 mg/kg/injection, schedule: Q01DX009 (ip), vehicle: saline with Tween-80) was 101 % of control, the T/C [24] was 114 % of control and the T/C (dose: 30.0 mg/kg/injection, schedule: Q01DX009 (ip), vehicle: saline with Tween-80) was 100 % of control. For the same compound, the T/C (dose: 50.0 mg/kg/injection, schedule: Q04DX003 (ip), vehicle: saline with Tween-80) was 97 % of control, the T/C (dose: 60.0 mg/kg/injection, schedule: Q01DX009 (ip), vehicle: saline with Tween-80) was 101 % of control and the T/C [16] was 98 % of control.

C[n+]1ccc2cc(N)c3c4ccccc4sc3c2c1 was tested, and the T/C (dose: 3.12 mg/kg/injection, schedule: Q01DX009 (ip), vehicle: saline with Tween-80) was 110 % of control and 119 % of control, the T/C (dose: 3.13 mg/kg/injection, schedule: Q01DX009 (ip), vehicle: Klucel (hydroxypropylcellulose) (HPC)) was 116 % of control and the T/C [11] was 123 % of control. For the same compound, the T/C (dose: 6.25 mg/kg/injection, schedule: Q04DX003 (ip), vehicle: saline with Tween-80) was 105 % of control, the T/C (dose: 12.5 mg/kg/injection, schedule: Q01DX009 (ip), vehicle: Klucel (hydroxypropylcellulose) (HPC)) was 156 % of control and the T/C (dose: 12.5 mg/kg/injection, schedule: Q04DX003 (ip), vehicle: saline with Tween-80) was 112 % of control. For the same compound, the T/C [4] was 170 % of control and 184 % of control, the T/C (dose: 25.0 mg/kg/injection, schedule: Q01DX009 (ip), vehicle: saline with Tween-80) was 172 % of control and the T/C [24] was 112 % of control.
